# Results from ChEMBL document CHEMBL1201862, “PubChem BioAssay data set” (2004).
#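 Cells were grown in 96-well plates and exposed to each compound for 48 hours at five concentrations; endpoints were interpolated linearly between bracketing concentrations, or set to the highest concentration if not reached. GI50 marks 50% less growth.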 Activity calls are given as the source filed them. Rule as the data show it: active = GI50 up to about 1.1 µM and inactive = higher.
# Experiments:
# Assay in all cases: NCI anticancer screen, dose series, 48 h
# [1] = system: 786-0
# [2] = system: A498
# [3] = system: A549
# [4] = system: ACHN
# [5] = system: BT-549
# [6] = system: CAKI-1
# [7] = system: CCRF-CEM
# [8] = system: COLO 205
# [9] = system: DU-145
# [10] = system: EKVX
# [11] = system: HCC 2998
# [12] = system: HCT-116
# [13] = system: HCT-15
# [14] = system: HL-60
# [15] = system: HOP-62
# [16] = system: HOP-92
# [17] = system: HT-29
# [18] = system: Hs-578T
# [19] = system: IGROV-1
# [20] = system: K562
# [21] = system: KM12
# [22] = system: LOX IMVI
# [23] = system: M14
# [24] = system: MCF7
# [25] = system: MDA-MB-231
# [26] = system: MDA-MB-435
# [27] = system: MDA-N
# [28] = system: MOLT-4
# [29] = system: Malme-3M
# [30] = system: NCI-H226
# [31] = system: NCI-H23
# [32] = system: NCI-H460
# [33] = system: NCI-H522
# [34] = system: NCI/ADR-RES
# [35] = system: OVCAR-3
# [36] = system: OVCAR-4
# [37] = system: OVCAR-5
# [38] = system: OVCAR-8
# [39] = system: PC-3
# [40] = system: RPMI-8226
# [41] = system: RXF 393
# [42] = system: SF-268
# [43] = system: SF-295
# [44] = system: SF-539
# [45] = system: SK-MEL-28
# [46] = system: SK-MEL-2
# [47] = system: SK-MEL-5
# [48] = system: SK-OV-3
# [49] = system: SN12C
# [50] = system: SNB-19
# [51] = system: SR
# [52] = system: SW-620
# [53] = system: T47D
# [54] = system: TK-10
# [55] = system: U-251
# [56] = system: UACC-257
# [57] = system: UACC-62
# [58] = system: UO-31
# [59] = system: SNB-75
structure (smiles),measurement,setting,value
COc1ccc(-c2cc3cc(Cl)cc(Cl)c3oc2=O)cc1OC,GI50,[1],35.3 µM (inactive)
same,GI50,[2],79.1 µM (inactive)
same,GI50,[3],92.3 µM (inactive)
same,GI50,[4],37.7 µM (inactive)
same,GI50,[5],57.3 µM (inactive)
same,GI50,[6],> 100 µM (inactive)
same,GI50,[7],> 100 µM (inactive)
same,GI50,[8],> 100 µM (inactive)
same,GI50,[9],> 100 µM (inactive)
same,GI50,[10],92.9 µM (inactive)
same,GI50,[11],44.7 µM (inactive)
same,GI50,[12],31.6 µM (inactive)
same,GI50,[13],48.8 µM
same,GI50,[14],> 100 µM (inactive)
same,GI50,[15],40 µM (inactive)
same,GI50,[16],46.6 µM (inactive)
same,GI50,[17],55.2 µM (inactive)
same,GI50,[18],31.4 µM (inactive)
same,GI50,[19],51.8 µM (inactive)
same,GI50,[20],33.3 µM (inactive)
same,GI50,[21],31.6 µM (inactive)
same,GI50,[22],> 100 µM (inactive)
same,GI50,[23],60.3 µM (inactive)
same,GI50,[24],59.3 µM (inactive)
same,GI50,[25],62.7 µM (inactive)
same,GI50,[26],65 µM (inactive)
same,GI50,[27],94 µM (inactive)
same,GI50,[28],> 100 µM (inactive)
same,GI50,[29],59.8 µM (inactive)
same,GI50,[30],43.9 µM (inactive)
same,GI50,[31],36.5 µM (inactive)
same,GI50,[32],36.7 µM (inactive)
same,GI50,[33],36.1 µM (inactive)
same,GI50,[34],56.9 µM (inactive)
same,GI50,[35],29.4 µM (inactive)
same,GI50,[36],32.8 µM (inactive)
same,GI50,[37],> 100 µM (inactive)
same,GI50,[38],65.8 µM (inactive)
same,GI50,[39],46.9 µM (inactive)
same,GI50,[40],63.5 µM (inactive)
same,GI50,[41],19.4 µM (inactive)
same,GI50,[42],43.6 µM (inactive)
same,GI50,[43],48.5 µM (inactive)
same,GI50,[44],81.7 µM (inactive)
same,GI50,[45],94.2 µM (inactive)
same,GI50,[46],> 100 µM (inactive)
same,GI50,[47],28.8 µM (inactive)
same,GI50,[48],74.8 µM (inactive)
same,GI50,[49],39.8 µM (inactive)
same,GI50,[50],28.2 µM (inactive)
same,GI50,[51],82 µM (inactive)
same,GI50,[52],> 100 µM (inactive)
same,GI50,[53],46.8 µM (inactive)
same,GI50,[54],44.9 µM (inactive)
same,GI50,[55],37.2 µM (inactive)
same,GI50,[56],51.1 µM (inactive)
same,GI50,[57],63.2 µM (inactive)
same,GI50,[58],58.7 µM (inactive)
COc1cc2nc3n(c2cc1OC)C(O)c1c(Cl)nc(SC)nc1S3 (stereo unspecified),GI50,[1],2.35 µM (inactive)
same,GI50,[2],6.81 µM (inactive)
same,GI50,[3],5.08 µM (inactive)
same,GI50,[4],3.3 µM (inactive)
same,GI50,[5],2.16 µM (inactive)
same,GI50,[6],7.24 µM (inactive)
same,GI50,[7],1.17 µM (inactive)
same,GI50,[8],4.78 µM (inactive)
same,GI50,[9],2.39 µM (inactive)
same,GI50,[10],15.4 µM (inactive)
same,GI50,[11],4.21 µM (inactive)
same,GI50,[12],2.46 µM (inactive)
same,GI50,[13],2.64 µM
same,GI50,[15],3.72 µM (inactive)
same,GI50,[16],12.2 µM (inactive)
same,GI50,[17],3.22 µM (inactive)
same,GI50,[18],2.77 µM (inactive)
same,GI50,[19],2.6 µM (inactive)
same,GI50,[20],3.03 µM (inactive)
same,GI50,[21],2.68 µM (inactive)
same,GI50,[22],1.7 µM (inactive)
same,GI50,[23],2.67 µM (inactive)
same,GI50,[24],3.36 µM (inactive)
same,GI50,[25],4.42 µM (inactive)
same,GI50,[26],4.01 µM (inactive)
same,GI50,[27],3.36 µM (inactive)
same,GI50,[28],1.98 µM (inactive)
same,GI50,[29],1.2 µM (inactive)
same,GI50,[30],3.35 µM (inactive)
same,GI50,[31],4.21 µM (inactive)
same,GI50,[32],3.44 µM (inactive)
same,GI50,[33],1.72 µM (inactive)
same,GI50,[34],3.36 µM (inactive)
same,GI50,[35],3.12 µM (inactive)
same,GI50,[36],5.77 µM (inactive)
same,GI50,[37],16.6 µM (inactive)
same,GI50,[38],2.59 µM (inactive)
same,GI50,[39],2.75 µM (inactive)
same,GI50,[40],2.16 µM (inactive)
same,GI50,[41],2.3 µM (inactive)
same,GI50,[42],3.78 µM (inactive)
same,GI50,[43],7.4 µM (inactive)
same,GI50,[44],2.4 µM (inactive)
same,GI50,[45],6.19 µM (inactive)
same,GI50,[46],2 µM (inactive)
same,GI50,[47],1.92 µM (inactive)
same,GI50,[48],3.59 µM (inactive)
same,GI50,[49],3.86 µM (inactive)
same,GI50,[50],6.47 µM (inactive)
same,GI50,[59],4.47 µM (inactive)
same,GI50,[51],3.68 µM (inactive)
same,GI50,[52],3.33 µM (inactive)
same,GI50,[53],3.8 µM (inactive)
same,GI50,[54],5.46 µM (inactive)
same,GI50,[55],3.37 µM (inactive)
same,GI50,[56],13.1 µM (inactive)
same,GI50,[57],2.19 µM (inactive)
same,GI50,[58],2.99 µM (inactive)
